Laboratory results: the supplement of paper PMC12463676, “Small-molecule dissolution of stress granules by redox modulation benefits ALS models” (Nature Chemical Biology, 2025)

Assays:
potassium arsenate = compound: O=[As]([O-])(O)O.[K+] [potassium arsenate]; assay: thermal stability z-score vs DMSO; higher = more thermally stabilized by treatment; details: HeLa; arsenate concentration 1 mM
Protocol: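 Cellular thermal proteome profiling in HeLa cells treated with 1 mM arsenate for 1 h (DMSO pretreatment), heated to ten temperatures (37-66.3 °C). Soluble protein was quantified by TMT mass spectrometry relative to DMSO controls; the thermal stability score was transformed to a z-score; mean of n = 3 experiments.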

lipoamide = compound: NC(=O)CCCCC1CCSS1 [lipoamide]; assay: as above; details: HeLa, lipoamide concentration 100 µM
Protocol: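 Cellular thermal proteome profiling in HeLa cells. Cells were treated with 100 µM lipoamide for 1 h, with or without 1 mM arsenate for a further 1 h, then heated to ten temperatures (37-66.3 °C), and soluble protein was quantified by TMT mass spectrometry relative to 0.1% DMSO controls. The thermal stability score (sum of log2 fold changes minus the abundance score) was transformed to a z-score; mean of n = 3 experiments.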

[1] = arsenate co-treatment: 1 mM arsenate 1 h
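Also: each temperature applied for 3 min, abundance score taken as mean log2 fold change at the two lowest temperatures, z-score obtained by mean subtraction and division by SD.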

Sequence of UniProt Q8IUH4 (Q8IUH4 whole entry): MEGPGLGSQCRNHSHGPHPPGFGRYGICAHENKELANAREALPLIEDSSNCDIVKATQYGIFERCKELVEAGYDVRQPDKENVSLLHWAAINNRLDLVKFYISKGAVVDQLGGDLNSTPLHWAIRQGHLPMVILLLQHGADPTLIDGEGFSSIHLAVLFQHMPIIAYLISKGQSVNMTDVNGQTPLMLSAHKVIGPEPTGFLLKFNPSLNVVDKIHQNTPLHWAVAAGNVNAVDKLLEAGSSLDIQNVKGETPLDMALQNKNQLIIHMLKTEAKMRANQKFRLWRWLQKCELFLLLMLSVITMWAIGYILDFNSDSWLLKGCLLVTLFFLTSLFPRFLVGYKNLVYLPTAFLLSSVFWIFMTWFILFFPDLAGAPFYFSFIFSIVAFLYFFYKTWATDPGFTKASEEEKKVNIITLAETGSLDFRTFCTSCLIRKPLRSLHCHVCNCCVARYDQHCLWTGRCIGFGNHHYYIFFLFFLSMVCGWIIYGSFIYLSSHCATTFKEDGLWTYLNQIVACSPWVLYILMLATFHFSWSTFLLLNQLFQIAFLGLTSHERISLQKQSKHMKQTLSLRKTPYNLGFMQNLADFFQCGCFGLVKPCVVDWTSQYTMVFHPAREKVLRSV
Sequence of UniProt Q14653 (Q14653 whole entry): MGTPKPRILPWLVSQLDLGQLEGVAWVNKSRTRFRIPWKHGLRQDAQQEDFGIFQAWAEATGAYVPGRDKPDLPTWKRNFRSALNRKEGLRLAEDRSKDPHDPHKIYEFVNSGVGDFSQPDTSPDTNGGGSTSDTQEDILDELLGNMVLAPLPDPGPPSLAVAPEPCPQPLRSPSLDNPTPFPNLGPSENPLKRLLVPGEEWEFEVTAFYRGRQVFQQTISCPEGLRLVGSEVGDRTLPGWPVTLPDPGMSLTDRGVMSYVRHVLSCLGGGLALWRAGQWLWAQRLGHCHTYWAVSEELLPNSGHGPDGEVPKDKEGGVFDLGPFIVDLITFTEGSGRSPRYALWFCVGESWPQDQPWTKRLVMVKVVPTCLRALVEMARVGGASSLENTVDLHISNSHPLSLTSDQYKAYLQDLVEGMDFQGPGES
Sequence of UniProt Q9Y282 (Q9Y282 whole entry): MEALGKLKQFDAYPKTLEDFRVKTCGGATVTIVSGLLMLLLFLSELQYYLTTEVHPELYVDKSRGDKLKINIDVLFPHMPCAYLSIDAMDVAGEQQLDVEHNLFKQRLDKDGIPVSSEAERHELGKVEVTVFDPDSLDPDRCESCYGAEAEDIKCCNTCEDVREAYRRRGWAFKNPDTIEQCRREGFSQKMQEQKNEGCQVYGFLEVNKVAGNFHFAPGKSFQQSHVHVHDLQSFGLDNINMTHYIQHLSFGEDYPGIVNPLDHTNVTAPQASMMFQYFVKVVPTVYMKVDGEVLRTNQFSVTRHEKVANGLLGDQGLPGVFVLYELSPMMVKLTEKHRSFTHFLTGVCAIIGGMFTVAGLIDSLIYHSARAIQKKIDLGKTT
Sequence of UniProt Q13526 (Q13526 whole entry): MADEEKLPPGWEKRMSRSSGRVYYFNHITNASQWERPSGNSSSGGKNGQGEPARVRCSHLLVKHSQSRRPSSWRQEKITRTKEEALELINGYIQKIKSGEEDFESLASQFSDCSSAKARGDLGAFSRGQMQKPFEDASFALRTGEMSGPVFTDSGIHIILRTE
Sequence of UniProt Q9BYX2 (Q9BYX2 whole entry): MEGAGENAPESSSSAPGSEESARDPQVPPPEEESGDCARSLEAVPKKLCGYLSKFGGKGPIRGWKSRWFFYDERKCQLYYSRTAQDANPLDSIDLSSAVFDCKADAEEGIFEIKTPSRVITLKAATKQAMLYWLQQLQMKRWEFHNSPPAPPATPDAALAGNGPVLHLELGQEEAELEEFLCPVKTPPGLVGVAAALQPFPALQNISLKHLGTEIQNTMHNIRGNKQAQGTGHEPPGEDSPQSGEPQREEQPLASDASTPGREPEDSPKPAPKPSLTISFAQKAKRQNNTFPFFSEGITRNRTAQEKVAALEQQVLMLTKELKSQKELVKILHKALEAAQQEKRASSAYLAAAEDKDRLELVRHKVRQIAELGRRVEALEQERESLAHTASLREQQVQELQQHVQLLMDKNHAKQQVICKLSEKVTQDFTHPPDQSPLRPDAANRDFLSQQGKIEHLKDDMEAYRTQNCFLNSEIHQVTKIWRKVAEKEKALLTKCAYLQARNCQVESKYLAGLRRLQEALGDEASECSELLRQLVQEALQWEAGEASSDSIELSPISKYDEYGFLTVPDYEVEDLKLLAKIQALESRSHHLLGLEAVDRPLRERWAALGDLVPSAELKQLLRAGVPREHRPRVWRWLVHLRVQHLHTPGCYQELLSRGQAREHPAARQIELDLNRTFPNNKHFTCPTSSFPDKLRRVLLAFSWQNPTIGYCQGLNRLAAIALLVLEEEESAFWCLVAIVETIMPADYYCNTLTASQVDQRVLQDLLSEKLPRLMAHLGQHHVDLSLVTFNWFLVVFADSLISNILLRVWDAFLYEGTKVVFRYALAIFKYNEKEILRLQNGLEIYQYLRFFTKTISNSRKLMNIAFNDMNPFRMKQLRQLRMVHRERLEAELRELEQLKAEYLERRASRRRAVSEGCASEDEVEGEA
Sequence of UniProt Q9GZZ9 (Q9GZZ9 whole entry): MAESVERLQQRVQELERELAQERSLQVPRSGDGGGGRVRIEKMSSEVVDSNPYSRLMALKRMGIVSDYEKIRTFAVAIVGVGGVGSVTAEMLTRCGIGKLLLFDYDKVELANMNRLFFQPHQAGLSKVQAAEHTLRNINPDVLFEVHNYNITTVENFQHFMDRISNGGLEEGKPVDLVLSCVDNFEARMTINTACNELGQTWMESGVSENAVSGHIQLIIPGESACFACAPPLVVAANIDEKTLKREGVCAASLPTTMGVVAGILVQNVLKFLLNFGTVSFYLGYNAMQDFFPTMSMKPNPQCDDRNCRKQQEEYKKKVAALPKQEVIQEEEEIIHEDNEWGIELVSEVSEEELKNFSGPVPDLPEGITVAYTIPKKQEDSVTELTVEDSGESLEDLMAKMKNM
Sequence of UniProt Q8TF46 (Q8TF46 whole entry): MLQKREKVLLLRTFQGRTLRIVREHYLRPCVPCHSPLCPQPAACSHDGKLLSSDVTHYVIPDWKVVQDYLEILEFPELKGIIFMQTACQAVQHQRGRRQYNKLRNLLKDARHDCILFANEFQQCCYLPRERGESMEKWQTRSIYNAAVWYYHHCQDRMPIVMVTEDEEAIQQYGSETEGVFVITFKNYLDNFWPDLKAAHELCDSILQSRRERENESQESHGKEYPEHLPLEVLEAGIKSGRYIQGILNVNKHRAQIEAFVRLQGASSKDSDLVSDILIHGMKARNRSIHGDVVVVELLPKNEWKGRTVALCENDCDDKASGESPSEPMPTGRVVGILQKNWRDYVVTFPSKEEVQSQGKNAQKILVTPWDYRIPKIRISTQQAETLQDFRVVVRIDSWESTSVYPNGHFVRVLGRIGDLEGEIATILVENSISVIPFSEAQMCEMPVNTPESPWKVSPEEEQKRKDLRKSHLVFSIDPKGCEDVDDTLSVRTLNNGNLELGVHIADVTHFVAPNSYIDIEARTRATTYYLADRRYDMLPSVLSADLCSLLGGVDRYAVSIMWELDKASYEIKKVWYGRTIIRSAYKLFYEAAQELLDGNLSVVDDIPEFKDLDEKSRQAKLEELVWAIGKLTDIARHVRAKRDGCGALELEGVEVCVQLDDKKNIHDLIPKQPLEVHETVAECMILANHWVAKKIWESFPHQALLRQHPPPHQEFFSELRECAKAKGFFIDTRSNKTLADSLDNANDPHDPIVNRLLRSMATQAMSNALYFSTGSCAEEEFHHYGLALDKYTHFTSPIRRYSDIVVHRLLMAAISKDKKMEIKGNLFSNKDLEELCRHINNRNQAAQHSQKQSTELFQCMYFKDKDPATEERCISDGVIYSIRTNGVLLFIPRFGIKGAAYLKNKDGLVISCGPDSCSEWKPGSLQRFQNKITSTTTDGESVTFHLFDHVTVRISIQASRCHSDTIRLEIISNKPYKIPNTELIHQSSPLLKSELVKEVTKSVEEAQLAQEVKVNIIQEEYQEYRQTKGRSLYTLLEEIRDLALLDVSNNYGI
Sequence of UniProt Q8NCF5 (Q8NCF5 whole entry): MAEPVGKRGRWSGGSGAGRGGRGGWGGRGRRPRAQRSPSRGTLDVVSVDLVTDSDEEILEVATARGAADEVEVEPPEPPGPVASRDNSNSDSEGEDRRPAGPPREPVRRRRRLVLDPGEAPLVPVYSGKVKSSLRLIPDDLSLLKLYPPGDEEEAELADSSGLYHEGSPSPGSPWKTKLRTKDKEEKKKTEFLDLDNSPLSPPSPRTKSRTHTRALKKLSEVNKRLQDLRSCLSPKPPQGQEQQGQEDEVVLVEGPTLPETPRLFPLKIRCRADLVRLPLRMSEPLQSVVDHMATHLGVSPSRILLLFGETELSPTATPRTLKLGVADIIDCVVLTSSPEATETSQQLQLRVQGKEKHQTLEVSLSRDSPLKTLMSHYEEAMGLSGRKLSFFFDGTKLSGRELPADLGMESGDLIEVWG
Sequence of UniProt Q13043 (Q13043 whole entry): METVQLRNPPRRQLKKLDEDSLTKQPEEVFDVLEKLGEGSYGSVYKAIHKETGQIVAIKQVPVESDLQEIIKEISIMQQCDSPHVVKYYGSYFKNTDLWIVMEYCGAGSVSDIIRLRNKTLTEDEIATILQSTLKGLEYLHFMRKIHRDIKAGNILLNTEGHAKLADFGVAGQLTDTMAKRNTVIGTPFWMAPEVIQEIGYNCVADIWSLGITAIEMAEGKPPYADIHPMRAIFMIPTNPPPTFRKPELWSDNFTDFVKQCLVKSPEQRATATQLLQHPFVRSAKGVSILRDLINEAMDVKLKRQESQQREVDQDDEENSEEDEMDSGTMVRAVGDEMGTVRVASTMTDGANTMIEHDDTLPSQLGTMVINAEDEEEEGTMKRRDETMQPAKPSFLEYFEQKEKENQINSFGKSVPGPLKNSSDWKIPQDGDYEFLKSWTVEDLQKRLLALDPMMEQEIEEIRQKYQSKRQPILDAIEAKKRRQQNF
Sequence of UniProt P84101 (P84101 whole entry): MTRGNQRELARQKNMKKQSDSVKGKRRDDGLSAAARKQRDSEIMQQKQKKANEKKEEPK

Row | Target | thermal stability z-score (potassium arsenate) | thermal stability z-score (lipoamide; [1]) | thermal stability z-score (lipoamide; arsenate co-treatment: none)
1 | ZDHHC13 (UniProt Q8IUH4) | 0.144 | 0.0485 | -0.0918
2 | ZFAND1 (UniProt Q8TCF1) | -0.247 | 0.233 | 0.29
3 | ARRDC1 (UniProt Q8N5I2) | 0.121 | -0.245 | 0.802
4 | WDFY3 (UniProt Q8IZQ1) | -0.0794 | -0.0589 | 0.0954
5 | NFATC2IP (UniProt Q8NCF5) | -0.254 | -0.124 | -0.127
6 | WDR81 (UniProt Q562E7) | 0.105 | -0.0547 | -0.0815
7 | CHEK2 (UniProt O96017) | -0.161 | -0.0379 | -0.222
8 | STX3 (UniProt Q13277) | -0.39 | 0.221 | -0.315
9 | TBC1D2 (UniProt Q9BYX2) | 0.225 | -0.151 | 0.0824
10 | CALCOCO1 (UniProt Q9P1Z2) | 0.0728 | 0.179 | 0.0847
11 | SERF2 (UniProt P84101) | -0.113 | 0.715 | 0.165
12 | STK4 (UniProt Q13043) | -0.188 | 0.0921 | -0.0308
13 | SGPP1 (UniProt Q9BX95) | -0.0282 | 0.332 | -0.299
14 | CIT (UniProt O14578) | -0.76 | 0.342 | -0.767
15 | FAHD1 (UniProt Q6P587) | 0.21 | 0.565 | 0.339
16 | HAUS6 (UniProt Q7Z4H7) | 0.528 | 0.0315 | 0.263
17 | CEP250 (UniProt Q9BV73) | 0.0828 | 0.0869 | 0.182
18 | NDUFC2 (UniProt O95298) | 2.15 | 1.34 | 0.996

Row | Target | thermal stability z-score (potassium arsenate) | thermal stability z-score (lipoamide; [1]) | thermal stability z-score (lipoamide; arsenate co-treatment: none)
19 | LIMS1 (UniProt P48059) | -2.08 | -0.604 | -0.589
20 | IRF3 (UniProt Q14653) | 1.13 | 0.883 | -0.106
21 | UBA5 (UniProt Q9GZZ9) | 0.622 | -0.815 | -0.52
22 | MDH1 (UniProt P40925) | -1.45 | 0.208 | 0.368
23 | MVB12A (UniProt Q96EY5) | 0.35 | 0.652 | -0.0184
24 | RPL35A (UniProt P18077) | -0.477 | 0.893 | 0.484
25 | TUBGCP4 (UniProt Q9UGJ1) | 0.141 | -0.259 | -0.815
26 | PGAM5 (UniProt Q96HS1) | 0.701 | 0.0875 | 0.709
27 | RAB30 (UniProt Q15771) | 0.498 | -0.315 | -0.0453
28 | ALKBH2 (UniProt Q6NS38) | 1.45 | 0.407 | 0.149
29 | BTF3 (UniProt P20290) | 0.076 | 0.457 | 0.48
30 | PIN1 (UniProt Q13526) | 0.757 | 0.355 | 0.305
31 | ERGIC3 (UniProt Q9Y282) | -0.464 | -1.11 | -0.784
32 | GPR108 (UniProt Q9NPR9) | 0.967 | 0.455 | -0.359
33 | DIS3L (UniProt Q8TF46) | 0.0192 | 0.0339 | 0.0425
34 | IKBKAP (UniProt O95163) | -0.261 | -0.193 | -0.141
35 | SNRPF (UniProt P62306) | 0.116 | 0.0402 | -0.072
36 | SPAG1 (UniProt Q07617) | -0.401 | 0.0825 | 0.0754
